Here are results for three molecules from patent US12365674B2, “Inhibitors of histone deacetylase useful for the treatment or prevention of HIV infection” (Merck Sharp & Dohme LLC, priority 2019, dated 2025).

Structures are written as SMILES.

Common to all, as to type: biochemical
Assay [1] deals with T1, human HDAC3/SMRT heterodimer (Homo sapiens, UniProt O15379).
T1 construct: Full length human HDAC3-FLAG was expressed in HEK-293F cells along with SMRT; host or cells: HEK-293F cells
Nature of the assay: Human HDAC enzyme inhibitor Fluor-de-Lys assay, HDAC3/SMRT. The conditions noted are these: HDAC3/SMRT 0.3 nM enzyme, 20 μM substrate BML-KI104, 10 μM IP4, 3 h pre-incubation, 60 min reaction; read-out: HDAC3_IC50. The text has this: (§1) Recombinant human HDAC8 (catalog number BML-SE145-0100) and HDAC10 (catalog number BML-SE559-0050) enzymes, HDAC substrates BML-KI104 and BML-KI178, and HDAC developer solutions BML-KI105 and BML-KI176 were purchased from Enzo Life Sciences (Farmingdale, NY). Recombinant human HDAC5 and HDAC11 were purchased from BPS Bioscience (San Diego, CA)(catalog numbers 50045 and 50021). Substrate Boc-Lys(TFA)-AMC was obtained from Bachem (Bupendorf, Switzerland) (catalog number 1-1985). HDAC inhibitor suberoylanilide hydroxamic acid (SAHA) was obtained from Indofine (Hillsborough Township, NJ) and trichostatin A (TSA) was obtained from Sigma-Aldrich (St. Louis, MO). […] HEPES pH 8.0 was obtained from Boston BioProducts (Ashland, MA), Tween-20 from Fisher Scientific (Hampton, NH)(catalog number BP337), TCEP from Calbiochem and 7.5% bovine serum albumin (BSA) from Life Technologies (Carlsbad, CA) (catalog number 15260037). 384-well, black assay plates were obtained from Corning (Corning, NY) (catalog number 3575).
(§2) Recombinant human HDAC1, HDAC2, and HDAC3/SMRT heterodimer were prepared by Merck Research Laboratories. […] The eluted protein was then passed over an anti-HDAC1 immunoaffinity column to remove any complexes containing HDAC1. […]
(§3) The histone deacetylase activities of HDAC1, HDAC2, HDAC3, HDAC6, and HDAC8 were measured in modified Fluor-de-Lys assays in 384-well format. In this assay, HDAC enzymes are initially incubated with an ε-acetyl (or -trifluoroacetyl)-L-lysine-containing substrate with a C-terminal amide having aminomethylcoumarin as the amine component. HDACs cleave the ε-acetyl group, rendering the resulting product susceptible to AMC cleavage by trypsin. The released AMC is then detected by its fluorescence.
(§4) The HDAC 1, 2 assays employed buffer A, which contained 20 mM HEPES, pH 8.0, 1 mM MgCl2, 137 mM NaCl, 2.7 mM KCl, 0.05% BSA. The HDAC3/SMRT assay employed buffer B, consisting of 20 mM HEPES, pH 8.0, 1 mM MgCl2, 50 mM NaCl, 2.7 mM KCl, 0.05% BSA, 0.005% Tween 20, and 10 μM IP4. The HDAC6 assay employed buffer C, consisting of 20 mM HEPES, pH 8.0, 1 mM MgCl2, 137 mM NaCl, 2.7 mM KCl, 0.5 mM TCEP (Calbiochem) and 0.05% BSA. The HDAC8 assay employed buffer D, consisting of 20 mM HEPES, pH 8.0, 1 mM MgCl2, 100 mM NaCl, 20 mM KCl, 0.1% n-octyl-β-D-glucoside (Anatrace, Maumee, OH) and 0.05% BSA. All steps were performed at room temperature (23° C.). The assay was performed by pre-incubating serial dilutions of test compounds with the target HDAC prior to initiation with substrate. Each compound was titrated in a 10-point dose response, using a 1:3 fold dilution scheme, with 0.15 ul of solution added by ECHO555 to the plate, followed by the addition of 20 μl of the appropriate HDAC isoform diluted in appropriate assay buffer. […] Final conditions used for each assay were: 1. HDAC 1, 0.3 nM total enzyme, 20 μM substrate BML-K1104; 2. HDAC 2, 1.5 nM total enzyme, 40 μM substrate BML-K1104; 3. HDAC 3/SMRT, 0.3 nM total enzyme, 20 μM substrate BML-K1104; 4. HDAC 6, 1.3 nM total enzyme, 2.5 μM substrate BML-K1104; 5. HDAC 8, 1.3 nM total enzyme, 200 μM substrate BML-K1178; the final high dose of test compound was 30 μM. […] The reactions were stopped and developed by addition of 30 ul of HDAC developer solution containing a saturating level of HDAC inhibitor as follows: 1.

The target in assay [2] is T2, human HDAC1 (Homo sapiens, UniProt Q13547).
T2 construct: Full length human HDAC1-FLAG was stably expressed in HEK-293F cells; host or cells: HEK-293F cells
T2 sequence (Q13547 whole entry): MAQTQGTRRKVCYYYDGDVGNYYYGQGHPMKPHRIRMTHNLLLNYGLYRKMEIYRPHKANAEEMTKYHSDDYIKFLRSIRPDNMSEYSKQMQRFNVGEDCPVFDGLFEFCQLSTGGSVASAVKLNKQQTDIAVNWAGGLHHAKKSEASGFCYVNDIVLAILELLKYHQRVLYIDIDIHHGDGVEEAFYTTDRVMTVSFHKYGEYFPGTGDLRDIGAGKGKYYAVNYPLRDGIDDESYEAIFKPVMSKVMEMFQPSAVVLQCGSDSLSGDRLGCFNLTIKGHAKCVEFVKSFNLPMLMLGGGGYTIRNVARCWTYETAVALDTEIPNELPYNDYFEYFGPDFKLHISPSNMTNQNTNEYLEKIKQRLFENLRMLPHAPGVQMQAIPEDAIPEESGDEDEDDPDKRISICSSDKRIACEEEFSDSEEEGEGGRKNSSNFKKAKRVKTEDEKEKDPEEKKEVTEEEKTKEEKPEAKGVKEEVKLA
Nature of the assay: Human HDAC enzyme inhibitor Fluor-de-Lys assay, HDAC1. The following applies: 0.3 nM enzyme, 20 μM substrate BML-KI104, 3 h pre-incubation, 60 min reaction; read-out: HDAC1_IC50.
Text: as §1, §2, §3, §4

In assay [3] the target is T3, human HDAC2 (Homo sapiens, UniProt Q92769).
T3 construct: Full length human HDAC2-FLAG was expressed in baculovirus infected Sf9 cells; host or cells: baculovirus infected Sf9 cells
T3 sequence (Q92769 whole entry): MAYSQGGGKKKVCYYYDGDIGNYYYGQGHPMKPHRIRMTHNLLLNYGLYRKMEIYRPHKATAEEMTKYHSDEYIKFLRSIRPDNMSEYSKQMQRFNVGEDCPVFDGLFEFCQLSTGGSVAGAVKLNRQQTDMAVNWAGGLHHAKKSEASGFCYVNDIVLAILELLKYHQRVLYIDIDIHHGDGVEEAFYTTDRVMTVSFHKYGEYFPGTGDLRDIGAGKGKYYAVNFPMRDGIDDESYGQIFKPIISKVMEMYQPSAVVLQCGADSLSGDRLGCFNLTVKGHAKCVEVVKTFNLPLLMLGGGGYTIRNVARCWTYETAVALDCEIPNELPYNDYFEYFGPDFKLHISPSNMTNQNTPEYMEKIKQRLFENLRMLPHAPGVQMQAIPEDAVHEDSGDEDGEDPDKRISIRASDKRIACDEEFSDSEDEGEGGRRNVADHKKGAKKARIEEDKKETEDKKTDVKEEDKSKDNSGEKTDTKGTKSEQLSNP
Nature of the assay: Human HDAC enzyme inhibitor Fluor-de-Lys assay, HDAC2. The following applies: 1.5 nM enzyme, 40 μM substrate BML-KI104, 3 h pre-incubation, 60 min reaction; read-out: HDAC2_IC50.
Text: as §1, §2, §3, §4

T1 sequence (O15379 whole entry): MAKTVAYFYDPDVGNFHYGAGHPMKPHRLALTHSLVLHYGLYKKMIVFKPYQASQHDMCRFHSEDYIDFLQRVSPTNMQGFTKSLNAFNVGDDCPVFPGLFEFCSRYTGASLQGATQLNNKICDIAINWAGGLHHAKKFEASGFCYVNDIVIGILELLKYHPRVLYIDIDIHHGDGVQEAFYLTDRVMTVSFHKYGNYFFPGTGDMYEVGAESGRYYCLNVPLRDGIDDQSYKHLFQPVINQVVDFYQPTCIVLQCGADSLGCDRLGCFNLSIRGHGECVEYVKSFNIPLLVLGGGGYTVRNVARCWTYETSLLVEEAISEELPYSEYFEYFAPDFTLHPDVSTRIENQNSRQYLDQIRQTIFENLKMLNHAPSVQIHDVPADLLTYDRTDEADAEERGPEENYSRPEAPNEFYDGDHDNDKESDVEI
T1 sequence (Q9Y618 1-899 partner limits assumed): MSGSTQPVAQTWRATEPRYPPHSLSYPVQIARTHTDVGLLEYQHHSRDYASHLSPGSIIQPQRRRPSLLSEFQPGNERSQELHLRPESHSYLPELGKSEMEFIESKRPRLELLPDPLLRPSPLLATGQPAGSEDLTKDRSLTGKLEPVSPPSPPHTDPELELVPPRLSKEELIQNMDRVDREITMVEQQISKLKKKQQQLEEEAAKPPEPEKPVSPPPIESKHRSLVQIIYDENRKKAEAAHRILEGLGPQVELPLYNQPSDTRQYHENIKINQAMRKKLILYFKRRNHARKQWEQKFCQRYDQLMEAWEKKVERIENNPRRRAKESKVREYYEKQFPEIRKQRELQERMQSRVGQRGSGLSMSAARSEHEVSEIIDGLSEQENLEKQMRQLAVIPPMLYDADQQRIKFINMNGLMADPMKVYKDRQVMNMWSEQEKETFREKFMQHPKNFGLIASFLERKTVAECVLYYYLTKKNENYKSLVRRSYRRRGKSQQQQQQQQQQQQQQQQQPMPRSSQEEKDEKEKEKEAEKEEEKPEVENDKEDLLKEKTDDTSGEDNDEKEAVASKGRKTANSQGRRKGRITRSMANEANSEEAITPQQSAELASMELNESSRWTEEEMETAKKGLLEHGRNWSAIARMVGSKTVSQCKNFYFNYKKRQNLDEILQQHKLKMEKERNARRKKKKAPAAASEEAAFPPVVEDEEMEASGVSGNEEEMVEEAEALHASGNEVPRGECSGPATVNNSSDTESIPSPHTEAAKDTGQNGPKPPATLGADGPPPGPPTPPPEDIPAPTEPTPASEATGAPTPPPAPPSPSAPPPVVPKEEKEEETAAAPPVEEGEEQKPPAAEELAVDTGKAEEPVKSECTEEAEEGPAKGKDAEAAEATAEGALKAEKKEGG

Regarding `COc1nc2ccccc2cc1-c1cnc([C@H](COCCCC(=O)c2ncco2)NC(=O)[C@H]2CC23CCN(C)CC3)[nH]1` [Compound 11, (1S)-N-{(1R)-1-[5-(2-methoxyquinolin-3-yl)-1H-imidazol-2-yl]-2-[4-(1,3-oxazol-2-yl)-4-oxobutoxy]ethyl}-6-methyl-6-azaspiro[2.5]octane-1-carboxamide], the IC50 in assay [1] turned out to be 5 nM; in assay [2] it was 2.1 nM; in assay [3], 9.7 nM.

Take `COc1nc2ccccc2cc1-c1cnc([C@@H](N)COCCCC(=O)c2ncco2)[nH]1` [Compound 1, (R)-4-(2-amino-2-(5-(2-methoxyquinolin-3-yl)-1H-imidazol-2-yl)ethoxy)-1-(oxazol-2-yl)butan-1-one]: the IC50 turned out to be 185 nM in assay [1], 288 nM in assay [2] and 1000 nM in assay [3].

Regarding `COc1cc2nc(C)ccc2cc1-c1cnc([C@H](COCCCC(=O)c2cc(C)on2)NC(=O)C2CN(C)C2)[nH]1` [Compound 19, N-{(1R)-1-[5-(7-methoxy-2-methylquinolin-6-yl)-1H-imidazol-2-yl]-2-[4-(5-methylisoxazol-3-yl)-4-oxobutoxy]ethyl}-1-methylazetidine-3-carboxamide], the IC50 in assay [1] was 1.3 nM; in assay [2], 6.9 nM; in assay [3], 8 nM.
